From US8546376B2, “Pharmaceutical compounds” (Almac Discovery Limited, priority 2009, dated 2013) come the findings set out here.

Holding throughout (assay type): biochemical
The target of test [1] is T1, AKT1 (Homo sapiens, UniProt P31749).
T1 construct: purchased SignalChem
In words: AKT Kinase Assay (IMAP fluorescent polarisation) vs AKT1. The following applies: activated AKT1, FAM Crosstide substrate. On the procedure: (§1) Testing of the compounds was performed using an AKT Kinase Assay:
(§2) Activated AKT isoforms 1, 2 and 3 were assayed utilising a 5′ FAM Crosstide (Seq. GRPRTSSFAEG-OH). The extent of kinase phosphorylation was determined by fluorescent polarisation using IMAP progressive binding reagent, which introduces binding beads which allow the reagent to specifically bind to phosphate residues via covalent co-ordination complex bonds.
(§3) iMAP binding solution stops Crosstide/kinase interaction and specifically binds phosphorylated substrates. The degree of phosphorylation is determined by fluorescent polarisation (excitation 485 nm; emission 528 nm) or the reduction in speed of rotation of the excited substrate.
(§4) The following materials were used in the assay: • a) Activated AKT isoforms (SignalChem.) dissolved in Complete Reaction buffer at a pre-determined concentration selected so that the assay was carried out in the linear range. • b) AKT substrate peptide: FAM Crosstide (R7110) Molecular Devices, diluted in complete reaction buffer. • c) iMAP Progressive Screening Express Kit (R8127) Molecular Devices • d) Complete Reaction Buffer containing 0.1% BSA, 10 mM Tris-HCl, 10 mM MgCl2, 0.05% NaN3 and 0.01% phosphate free BSA, 1 mM DTT • e) Progressive Binding Solution containing 75% Buffer A, 25% Buffer B and low volume Binding Reagent which contains the binding entity for the assay • f) ATP diluted in complete reaction buffer • g) Black polystyrene 384 well assay plates (Nunc). • h) Biotek Synergy 4 Hybrid Plate reader.
(§5) 5 μl of test compound was dissolved in DMSO (Sigma Aldrich) and serially diluted in complete reaction buffer to give a fourteen point half log dose response and plated into 384 well black plates. The compound was incubated at room temperature with activated AKT isoform (5 μl) at the pre-determined concentration, for 45 minutes.
(§6) 2.5 μl of ATP solution mixed with 2.5 μl of AKT substrate peptide (FAM Crosstide (R7110) Molecular Devices) were dispensed into each well and the plate centrifuged at 1000 rpm for 20 seconds to ensure homogenous mixing of reagents. The reaction mix was incubated in the dark for one hour at room temperature.
(§7) The kinase reaction was stopped by the addition of Progressive Binding Solution and the mixture allowed to equilibrate for one hour in the dark, at room temperature.
(§8) The fluorescent polarisation generated in each well was determined using a […] Synergy 4 Hybrid plate reader. In brief, each reaction solution was excited at 485 nm with the emission measured at 528 nm in both the parallel and perpendicular pathway.
(§9) The polarisation value generated in each well was calculated by Gen5 software (Biotek) and the % inhibition of kinase activity compared to vehicle control was calculated via GraphPad Prism. IC50 values for each compound were calculated by non-linear regression analysis using Prism software.
(§10) All plates were internally controlled by two methods. Firstly, by calculating the signal:noise ratio; based on kinase polarisation without inhibitor and polarisation generated by complete reaction buffer in the absence of activated kinase. Secondly by determining IC50 values generated by known inhibitors of the AKT isoforms.

Test [2] deals with T2, AKT2 (Homo sapiens, UniProt P31751).
T2 construct: purchased SignalChem
Kind of test: AKT Kinase Assay (IMAP fluorescent polarisation) vs AKT2. The following applies: activated AKT2, FAM Crosstide substrate. On the procedure: as §1, §2, §3, §4, §5, §6, §7, §8, §9, §10

The target in test [3] is T3, AKT3 (Homo sapiens, UniProt Q9Y243).
T3 construct: purchased SignalChem
Kind of test: AKT Kinase Assay (IMAP fluorescent polarisation) vs AKT3. The note with it: activated AKT3, FAM Crosstide substrate. On the procedure: as §1, §2, §3, §4, §5, §6, §7, §8, §9, §10

What is called IC50 is the point on the concentration scale where inhibition reaches its midpoint.

Where a name gives a salt, the structure may show the parent alone.

T3 sequence (Q9Y243 whole entry): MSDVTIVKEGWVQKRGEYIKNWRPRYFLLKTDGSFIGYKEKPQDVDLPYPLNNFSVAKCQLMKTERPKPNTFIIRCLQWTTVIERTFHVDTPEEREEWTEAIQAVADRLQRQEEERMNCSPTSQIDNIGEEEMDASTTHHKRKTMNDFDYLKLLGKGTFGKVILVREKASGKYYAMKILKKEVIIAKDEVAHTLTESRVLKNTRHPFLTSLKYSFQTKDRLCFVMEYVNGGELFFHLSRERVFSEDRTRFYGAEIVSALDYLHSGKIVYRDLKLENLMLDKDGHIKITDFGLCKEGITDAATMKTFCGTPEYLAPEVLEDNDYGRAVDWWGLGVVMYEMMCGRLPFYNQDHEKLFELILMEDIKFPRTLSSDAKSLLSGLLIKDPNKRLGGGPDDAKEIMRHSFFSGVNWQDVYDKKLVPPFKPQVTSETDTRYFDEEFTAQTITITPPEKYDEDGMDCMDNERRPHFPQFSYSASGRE
T1 sequence (P31749 whole entry): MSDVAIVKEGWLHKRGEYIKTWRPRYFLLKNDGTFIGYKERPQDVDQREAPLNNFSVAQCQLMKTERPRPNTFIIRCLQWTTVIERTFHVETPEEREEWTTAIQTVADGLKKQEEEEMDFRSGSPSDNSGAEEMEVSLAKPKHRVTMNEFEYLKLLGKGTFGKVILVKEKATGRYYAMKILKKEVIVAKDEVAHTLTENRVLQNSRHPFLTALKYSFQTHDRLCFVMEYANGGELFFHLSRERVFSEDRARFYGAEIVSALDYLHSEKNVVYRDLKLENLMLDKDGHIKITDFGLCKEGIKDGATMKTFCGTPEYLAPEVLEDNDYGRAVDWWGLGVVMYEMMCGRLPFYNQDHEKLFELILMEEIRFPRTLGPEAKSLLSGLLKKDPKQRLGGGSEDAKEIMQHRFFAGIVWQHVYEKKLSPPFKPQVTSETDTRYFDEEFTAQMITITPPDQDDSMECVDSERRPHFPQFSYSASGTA
T2 sequence (P31751 whole entry): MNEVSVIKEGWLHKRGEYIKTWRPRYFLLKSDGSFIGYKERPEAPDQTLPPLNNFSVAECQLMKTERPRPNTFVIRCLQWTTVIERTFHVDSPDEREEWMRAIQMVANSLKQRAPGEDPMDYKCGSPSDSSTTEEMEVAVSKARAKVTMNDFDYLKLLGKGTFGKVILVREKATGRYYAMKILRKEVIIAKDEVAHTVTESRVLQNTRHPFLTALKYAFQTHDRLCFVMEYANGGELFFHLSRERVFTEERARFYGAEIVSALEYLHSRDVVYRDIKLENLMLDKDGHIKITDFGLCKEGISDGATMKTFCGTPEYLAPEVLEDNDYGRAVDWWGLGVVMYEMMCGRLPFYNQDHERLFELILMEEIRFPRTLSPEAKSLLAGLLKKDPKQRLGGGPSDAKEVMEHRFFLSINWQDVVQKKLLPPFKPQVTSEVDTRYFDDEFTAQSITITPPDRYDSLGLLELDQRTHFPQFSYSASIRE

For the compound `CON=c1c(-c2ccc(C3(N)CCC3)cc2)c(-c2ccccc2)oc2ccccc12` [Example 66, 3-[4-(1-Amino-cyclobutyl)-phenyl]-2-phenyl-chromen-4-one O-methyl-oxime], the IC50 is not above 1 µM in test [1], 1 to 10 µM in test [2] and more than 10 µM in test [3].
For `NC1(c2ccc(C3=C(c4ccccc4)c4ccccc4C3=O)cc2)CCC1` [Example 48, 2-(4-(1-aminocyclobutyl)phenyl)-3-phenyl-1H-inden-1-one hydrochloride], the IC50 in test [1], in test [2] and in test [3] was 1 to 10 µM throughout.
Take `Cn1nc2c3oc(-c4ccccc4)c(-c4ccc(C5(N)CCC5)cc4)c(=O)c3ccn2c1=O` [Example 64, 7-[4-(1-Amino-cyclobutyl)-phenyl]-2-methyl-8-phenyl-2H-9-oxa-1,2,3a-triaza-cyclopenta[a]naphthalene-3,6-dione hydrochloride]: the half-inhibitory concentration (IC50) in test [1], in test [2] and in test [3] was not above 1 µM throughout.
As to `NC1(c2ccc(-c3c(-c4ccccc4)oc4ccc(Br)cc4c3=O)cc2)CCC1` [Example 19, 3-[4-(1-Amino-cyclobutyl)-phenyl]-6-bromo-2-phenyl-chromen-4-one], the IC50 in test [1], in test [2] and in test [3] was 1 to 10 µM in each case.
As to `CCn1cc2ccc3c(=O)c(-c4ccc(C5(N)CCC5)cc4)c(-c4ccccc4)oc3c2n1` [Example 82, 7-[4-(1-Amino-cyclobutyl)-phenyl]-2-ethyl-8-phenyl-2H-9-oxa-1,2-diaza-cyclopenta[a]naphthalen-6-one hydrochloride], the IC50 in test [1] was not above 1 µM; in test [2] it was not above 1 µM; in test [3] it was more than 10 µM.
As for `NC1(c2ccc(-c3c(-c4ccccc4)oc4c(-n5ccnc5)cccc4c3=O)cc2)CCC1` [Example 74, 3-[4-(1-Amino-cyclobutyl)-phenyl]-8-imidazol-1-yl-2-phenyl-chromen-4-one hydrochloride], the IC50 is not above 1 µM in test [1], not above 1 µM in test [2] and 1 to 10 µM in test [3].
Consider `NC1(c2ccc(-c3c(-c4ccccc4)oc4cccc(F)c4c3=O)cc2)CCC1` [Example 3, 3-[4-(1-Amino-cyclobutyl)-phenyl]-5-fluoro-2-phenyl-chromen-4-one], for which the IC50 was 1 to 10 µM in test [1], 1 to 10 µM in test [2] and more than 10 µM in test [3].
With `Nc1cc2oc(-c3ccccc3)c(-c3ccc(C4(N)CCC4)cc3)c(=O)c2cc1Br` [Example 49, 7-Amino-3-[4-(1-amino-cyclobutyl)-phenyl]-6-bromo-2-phenyl-chromen-4-one. TFA], the results for the IC50 in test [1], in test [2] and in test [3] were not above 1 µM, more than 10 µM and more than 10 µM, respectively.
Regarding `Cn1cc2c(ccc3c(=O)c(-c4ccc(C5(N)CCC5)cc4)c(-c4ccccc4)oc32)n1` [Example 61, 3-[4-(1-Amino-cyclobutyl)-phenyl]-8-methyl-2-phenyl-8H-pyrano[2,3-e]indazol-4-one], the IC50 was not above 1 µM in test [1], not above 1 µM in test [2] and 1 to 10 µM in test [3].
`CN1C(=O)COc2c1ccc1c(=O)c(-c3ccc(C4(N)CCC4)cc3)c(-c3ccccc3)oc21` [Example 112, 8-(4-(1-aminocyclobutyl)phenyl)-4-methyl-9-phenylchromeno[8,7-b][1,4]oxazine-3,7(2H,4H)-dione]: the half-maximal inhibitory concentration (IC50) is not above 1 µM in test [1], not above 1 µM in test [2] and 1 to 10 µM in test [3].
Turning to `CCn1ncc2ccc3c(=O)c(-c4ccc(C5(N)CCC5)cc4)c(-c4ccccc4)oc3c21` [Example 81, 7-[4-(1-Amino-cyclobutyl)-phenyl]-1-ethyl-8-phenyl-1H-9-oxa-1,2-diaza-cyclopenta[a]naphthalen-6-one hydrochloride], the IC50 was not above 1 µM in test [1], not above 1 µM in test [2] and 1 to 10 µM in test [3].
For `COc1cc2c(=O)c(-c3ccc(C4(N)CCC4)cc3)c(-c3ccccc3)oc2cc1C(N)=O` [Example 29, 3-[4-(1-Amino-cyclobutyl)-phenyl]-6-methoxy-4-oxo-2-phenyl-4H-chromene-7-carboxylic acid amide], the IC50 in test [1] is 1 to 10 µM; in test [2], not above 1 µM; in test [3], more than 10 µM.
For the compound `NC1(c2ccc(-c3c(-c4ccccc4)oc4c(ccc5nn[nH]c54)c3=O)cc2)CCC1` [Example 88, 7-[4-(1-Amino-cyclobutyl)-phenyl]-8-phenyl-1H-9-oxa-1,2,3-triaza-cyclopenta[a]naphthalen-6-one], the IC50 was not above 1 µM in test [1], not above 1 µM in test [2] and more than 10 µM in test [3].
On to `COc1cccc2c(=O)c(-c3ccc(C4(N)CCC4)cc3)c(-c3ccccc3)oc12` [Example 16, 3-[4-(1-Amino-cyclobutyl)-phenyl]-8-methoxy-2-phenyl-chromen-4-one], for which the concentration for half-maximal inhibition (IC50) in test [1], in test [2] and in test [3] was 1 to 10 µM each time.
In the case of `NC1(c2ccc(-c3c(-c4ccccc4)oc4cc(OC(F)(F)F)ccc4c3=O)cc2)CCC1` [Example 24, 3-[4-(1-Amino-cyclobutyl)-phenyl]-2-phenyl-7-trifluoromethoxy-chromen-4-one], the concentration for half-maximal inhibition (IC50) in test [1] is more than 10 µM; in test [2], 1 to 10 µM; in test [3], more than 10 µM.
Consider `COc1ccc2c(=O)c(-c3ccc(C4(N)CCC4)cc3)c(-c3ccccc3)oc2c1Br` [Example 9, 3-[4-(1-Amino-cyclobutyl)-phenyl]-8-bromo-7-methoxy-2-phenyl-chromen-4-one], for which the values for the IC50 in test [1], in test [2] and in test [3] were not above 1 µM, not above 1 µM and 1 to 10 µM, respectively.
Consider `COc1cc2oc(-c3ccccc3)c(-c3ccc(C4(N)CCC4)cc3)c(=O)c2cc1C#N` [Example 11, 3-[4-(1-Amino-cyclobutyl)-phenyl]-7-methoxy-4-oxo-2-phenyl-4H-chromene-6-carbonitrile], for which the concentration for half-maximal inhibition (IC50) in test [1] was 1 to 10 µM; in test [2], 1 to 10 µM; in test [3], more than 10 µM.
For the compound `Cc1nc2ccc3c(=O)c(-c4ccc(C5(N)CCC5)cc4)c(-c4ccccc4)oc3c2n1C` [Example 90, 7-[4-(1-Amino-cyclobutyl)-phenyl]-1,2-dimethyl-8-phenyl-1H-chromeno[7,8-d]imidazol-6-one], the IC50 in test [1], in test [2] and in test [3] was not above 1 µM in each case.
Consider `NC1(c2ccc(-c3c(-c4ccccc4)oc4c(-n5cnnc5)nccc4c3=O)cc2)CCC1` [Example 102, 3-[4-(1-Amino-cyclobutyl)-phenyl]-2-phenyl-8-[1,2,4]triazol-4-yl-pyrano[2,3-c]pyridin-4-one hydrochloride], for which the IC50 in test [1] is not above 1 µM; in test [2] it was 1 to 10 µM; in test [3] it was more than 10 µM.
The corresponding values for `COCCn1ccc2c(=O)c(-c3ccc(C4(N)CCC4)cc3)c(-c3ccccc3)oc2c1=O` [Example 31, 3-[4-(1-Amino-cyclobutyl)-phenyl]-7-(2-methoxy-ethyl)-2-phenyl-7H-pyrano[2,3-c]pyridine-4,8-dione] are more than 10 µM, 1 to 10 µM and 1 to 10 µM.
The corresponding values for `NC1(c2ccc(-c3c(-c4ccccc4)oc4c(=O)n(CCO)ccc4c3=O)cc2)CCC1` [Example 43, 3-[4-(1-Amino-cyclobutyl)-phenyl]-7-(2-hydroxy-ethyl)-2-phenyl-7H-pyrano[2,3-c]pyridine-4,8-dione hydrochloride] are more than 10 µM, more than 10 µM and more than 10 µM.
